{
  "source": "patent US20260309621A1",
  "about": "“HIGH THROUGHPUT OPTICAL ASSAY FOR SCREENING HEMOGLOBIN OXYGEN AFFINITY MODIFYING DRUG” (CASE WESTERN RESERVE UNIVERSITY, priority 2023, published 2026)",
  "key": {"[1]": {"test_system": "HbAA and HbSS whole blood", "assay": "pO2 reduction in whole blood by Na2S2O5 (blood gas analyzer)", "design": "species or system human", "experimental": "All samples were initially exposed to ambient air for 600 seconds. The oxygen partial pressure (pO2), 21% of atmospheric pressure (773 mmHg), was then normalized to 162 mmHg PO2 during oxygenation (FIG. 7A). Sodium metabisulphite (Na2S2O5) was used to deoxygenate the samples chemically (FIG. 7B). Predetermined amounts of sodium metabisulphite were mixed with 2 ml of the prepared samples for 90 seconds using a vortexer (Scientific Industries, Bohemia, NY). The concentrations of Na2S2O5 used with purified hemoglobin were 0.039 M, 0.046 M, 0.053 M, 0.059 M, 0.066 M, 0.079 M, and 0.082 M, which corresponded to a gradual reduction in the oxygen partial pressure in the samples. For whole blood and RBC analyses, we used 0.053 M of Na2S2O (17-fold more molecules than Hb molecules in solution) to achieve partial deoxygenation (Table 1). A blood gas analyzer (Nova Starter Pro, Nova BioMed, Boston, Massachusetts) was used to confirm the deoxygenation levels at those Na2S2O5 concentrations.\nWe used sodium metabisulphite (Na2S2O5) to deoxygenate purified hemoglobin, intact RBCs, or whole blood (FIGS. 7A & B). […] At elevated concentrations of Na2S2O5, corresponding to high levels of deoxygenation or pO2 close to 30 mmHg, the curve plateaus (FIG. 8)."}, "[2]": {"test_system": "HbSS patient whole blood", "assay": "Peak wavelength shift of whole blood from SCD patients stratified by treatment", "design": "species or system human", "experimental": "Blood samples were collected from healthy donors and individuals with SCD as part of standard clinical care. We received ethical approval from the University Hospitals of Cleveland Medical Center's Institutional Review Board (IRB) and Joint Clinical Research Ethics Committee in Kampala, Uganda, for the Naïve SCD group. All participants in the study provided written informed consent. When collected, blood samples were de-identified, kept at 4 degrees Celsius, and processed within 6 hours of receipt. […] Hemoglobin profiles of samples were verified using the reference standard high performance liquid chromatography (HPLC, VARIANT™ II, Bio-Rad Laboratories, Inc., Hercules, California). […] Intracellular hemoglobin concentration for all blood samples was measured under normoxia with complete blood count (CBC, Hemavet 950FS, Hematology System, Draw Scientific Inc.; Miami, Florida).\nDuring testing with either oxygenation or deoxygenation, samples were analyzed in three microplate wells using a spectroscopy microplate reader Spectramax M2e (Molecular Devices, San Jose, CA), over a spectral range of 350-750 nm, with a wavelength resolution of 2 nm and at a customized microplate well reading setting at room temperature. […] (3) For each sample and at concentration of 0.053 M Na2S2O5, the bathochromic wavelength shift and intensity were assessed for further analysis (FIG. 7D). […]"}, "[3]": {"molecular_target": "T1, HbSS (Homo sapiens, UniProt P68871+P69905, E7V)", "T1 construct": "whole blood, washed red cells or purified hemoglobin", "assay": "96-well high throughput optical absorption assay: Soret band peak wavelength shift of deoxygenated SCD samples treated with oxygen modifying molecules", "assay_type": "biochemical", "source_text": "FIGS. 3(A-C) illustrate varying concentration of voxelotor tested using 96 well plates optical assay. (A) Representative 96 well plate, showing the arrangement of a single sample analyzed. […] (B) Insert from the 12 columns of the 96 well plate, showing the Soret band peak wavelength shift in the wavelength range of 380-450 nm.\nFIGS. 4(A-B) illustrate increasing the concentration of voxelotor induces a decrease in the peak wavelength of SCD samples (A) Insert from the 12 columns of the 96 well plate, showing the Soret band peak wavelength shift in the wavelength range of 380-450 nm.\nFIGS. 5(A-B) illustrate varying concentration of PKR activator tested using 96 well plates optical assay. (A) Insert from the 12 columns of the 96 well plate, showing the Soret band peak wavelength shift in the wavelength range of 380-450 nm.\nFIGS. 6(A-B) illustrate varying concentrations of aptamer induce peak wavelength shift. (A) Soret band peak wavelength shifts for oxygenated blood with aptamer deoxygenated blood with aptamer, untreated blood, and voxelotor treatment were compared in the wavelength range of 350-450. Increasing the concentration of aptamer from 0.2 dosages (B) Increasing the concentration of aptamer from 0.2 dosages to 0.25 induces a reduction in peak wavelength from 416 nm to 414 nm.\nThis example relates to a 96-well high throughput assay optical absorption spectroscopic assay that can be used to assess the rate of oxygen release from hemoglobin.\nWhole blood, purified hemoglobin, or washed red blood cells (RBCs) are mixed with a buffer solution at 6.8 or 8. Additional hemoglobin or RBCs to an acidic buffer changes the molecular conformational structure of hemoglobin. Determined volume of the analyte (including but not limited to whole blood, purified hemoglobin, or red blood cells (RBCs)) are mixed with buffer are added to each of the 12/96/384 well plates. The analytes are then chemically deoxygenated with a determined concentration of sodium metabisulphite an approach to deplete oxygen from hemoglobin molecules. The solution is analyzed using a spectroscopic microplate reader. […]"}, "[4]": {"test_system": "purified hemoglobin", "assay": "Circular dichroism spectra of purified hemoglobin at pH 6.9", "assay_type": "physicochemical, human", "settings": "purified Hb, pH 6.9, 75 mmHg, deoxy", "source_text": "The circular dichroism (CD) spectra, like the absorption spectra in the Soret and visible range, reveal the molecular structure of the hemoglobin globin and heme groups. […] CD spectra were collected between 190 and 650 nm wavelength on a Jasco J-1500 Spectropolarimeter with a 1 mm quartz cuvette and a scan rate of 4 seconds. The recorded spectra were background subtracted, accounting for a pH 6.9 buffer. The data was baselined and smoothed in the Spectra Manager software (Release 2018; Version 2.15.01)."}, "[5]": {"test_system": "hemoglobin (HbAA, HbSS)", "assay": "Hemoglobin-oxygen dissociation assay (Soret band bathochromic shift with partial chemical deoxygenation by Na2S2O5)", "assay_type": "biochemical, human", "settings": "for Peak wavelength: pH 6.9, pO2 = 75 mmHg, mean ± SEM; for peak wavelength, repeatability: ~20 mmHg pO2, mean ± SEM", "source_text": "Herein, we take advantage of the unique optical shift of Hb's Soret band and combine it with partial chemical deoxygenation to optically measure Hb-O2 dissociation under physiologically acidic conditions at pH 6.9.\nBlood samples were collected from healthy donors and individuals with SCD as part of standard clinical care. We received ethical approval from the University Hospitals of Cleveland Medical Center's Institutional Review Board (IRB) and Joint Clinical Research Ethics Committee in Kampala, Uganda, for the Naïve SCD group. All participants in the study provided written informed consent. When collected, blood samples were de-identified, kept at 4 degrees Celsius, and processed within 6 hours of receipt. […] Hemoglobin profiles of samples were verified using the reference standard high performance liquid chromatography (HPLC, VARIANT™ II, Bio-Rad Laboratories, Inc., Hercules, California). The results were presented as a percentage of HbS, A2, and F; the remainder was considered HbA since the values were normalized to 100%. Intracellular hemoglobin concentration for all blood samples was measured under normoxia with complete blood count (CBC, Hemavet 950FS, Hematology System, Draw Scientific Inc.; Miami, Florida).\nThree independent sample preparations were performed to test different hypotheses. (1) Whole blood, (2) isolated intact red blood cells (RBC), and (3) purified hemoglobin (lysed samples).\nFor whole blood preparation, 75 μl of whole blood was mixed with pH 6.9 buffers at a ratio of 1:300 and incubated for 10 minutes at room temperature before deoxygenation.\nFor intact RBC sample preparation, whole blood was centrifuged at 500 g for 10 minutes in a microcentrifuge (model 21r; Thermo Scientific, Waltham, MA). The plasma and buffy coat were removed via aspiration. The RBCs were washed thrice with phosphate-buffered saline (PBS) at pH 7.4 (Gibco, Thermo Scientific, Waltham, MA). Next, 45 μL of the washed RBC suspension was diluted with a pH 6.9 buffer solution until the baseline hematocrit of 0.2% was achieved. Before deoxygenation, RBCs were incubated for 10 minutes in a pH 6.9 buffer solution at room temperature.\nFor purified hemoglobin preparation; lysed samples were prepared. Hemolysis was carried out by sonication for 30 seconds (Hemex Health; Portland, OR). Following hemolysis, the lysed cell suspension was added to various pH buffer solutions and centrifuged at 2000 g for 1 hour. Three hundred μl of the cell lysate was removed, and the supernatant was dis-carded. Cell lysates were diluted in 700 μl of the specific pH buffer solution and centrifuged at 2000 g for 1 hour. The 1 ml of pH buffer solution and cell lysate were filtered through a 0.02 μm Millipore membrane. The hemoglobin concentration in the lysed sample was determined using the hemoglobin [COMPOUND LEFT OUT] (HiCN) method and measured with a cuvette spectrophotometer at 540 nm. Each purified lysed sample was diluted with different pH solutions (pH 6.9, 7.2, 7.4, 8.0, and 10.0) to achieve a hemoglobin concentration of 2.8 mg dl^−1, determined as the baseline for lysed sample analysis."}},
  "data": [
    {"molecule": "O=S([O-])S(=O)(=O)[O-].[Na+].[Na+]", "note": "[Na2S2O5, sodium metabisulfite]", "values": [
      {"measurement": "pO2 in whole blood with increased Na2S2O5 concentration", "setting": "[1]; 0-0.08 M Na2S2O5, 4 minutes, pH 6.9, 7.2, 7.4, 8.0, HbAA and HbSS, n=5, FIG. 8", "result": "20-40 mmHg"},
      {"measurement": "deoxygenation of hemoglobin", "setting": "[1]; 0.053 M Na2S2O5", "result": "partial deoxygenation of hemoglobin"},
      {"measurement": "pO2 of deoxygenated samples", "setting": "[1]; 0.053 M Na2S2O5", "result": 75, "unit": "mmHg"},
      {"measurement": "min. pO2 in HbSS whole blood", "setting": "[1]; 0.053 M Na2S2O5, FIG. 8B", "result": "around 10 mmHg"}
    ]},
    {"molecule": "NC(=O)NO", "note": "[hydroxyurea]", "values": [
      {"measurement": "peak wavelength shift differences, oxygenated samples", "setting": "[2]; Hu HbSS, oxygenated, FIG. 11C", "result": "No significant differences"},
      {"measurement": "bathochromic shift differences between HbAA, HbAS and HbSS stratified by treatment", "setting": "[2]; hydroxyurea (Hu HbSS=15), deoxygenated 75 mmHg, pH 6.9, FIG. 11C", "result": "significant differences"}
    ]},
    {"molecule": "CC(C)n1nccc1-c1ncccc1COc1cccc(O)c1C=O", "note": "[voxelotor]", "values": [
      {"measurement": "difference in peak wavelength shift between deoxy HbSS and deoxy HbSS+Vox", "setting": "[3]; 63, 118, 211 and 421 μM Vox, Mann-Whitney, FIG. 4", "result": "Significate differences"},
      {"measurement": "peak wavelength shift of treated SCD samples compared to untreated SCD samples", "setting": "[3]; voxelotor, 3 hours incubation, varying concentrations", "result": "reduced peak wavelength shift"},
      {"measurement": "effect of increasing concentration on oxygen affinity of HbSS", "setting": "[3]; voxelotor, reduction in peak wavelength shift to that of HbAA, FIG. 4", "result": "increases the oxygen affinity of HbSS"}
    ]},
    {"molecule": "HbAA: healthy hemoglobin", "values": [
      {"measurement": "CD Soret peak, partially deoxygenated", "setting": "[4]", "result": 425, "unit": "nm"},
      {"measurement": "peak wavelength, fully oxygenated", "setting": "[5]; 162 mmHg pO2, all pH values", "result": 414, "unit": "nm"},
      {"measurement": "Peak wavelength", "setting": "[5]; RBCs", "result": "418.0 ± 0.56 (n = 15)"},
      {"measurement": "peak wavelength, repeatability", "setting": "[5]; User1, whole blood", "result": "414.9±0.11"},
      {"measurement": "peak wavelength, repeatability", "setting": "[5]; User2, whole blood", "result": "415.1±0.05"},
      {"measurement": "Peak wavelength", "setting": "[5]; purified hemoglobin", "result": "417.2 ± 0.78 (n = 23)"},
      {"measurement": "area under the peak", "setting": "[5]; whole blood, FIG. 10I, pH 6.9, 75 mmHg pO2", "result": "37.2±0.8"},
      {"measurement": "FWHM", "setting": "[5]; whole blood, FIG. 10J, pH 6.9, 75 mmHg pO2", "result": "24.3±0.82"},
      {"measurement": "Peak wavelength", "setting": "[5]; whole blood", "result": "415.3 ± 0.23 (n = 15)"}
    ]},
    {"molecule": "purified Hb: purified hemoglobin (lysed samples)", "values": [
      {"measurement": "peak wavelength of purified Hb with increasing Hb concentration", "setting": "[5]; purified Hb 0.3-11.2 mg/dl, FIG. 13", "result": "420±0.2"}
    ]}
  ]
}
